Activity calls are given as the source filed them.
Key:
[1] = A549 cell cytotoxicity, dose response, cytotoxicity control, plate reader, cherry-pick, antagonist series (AID 743412); type: functional, cell-based
X-box-binding protein 1 = X-box-binding protein 1 (Homo sapiens, UniProt P17861); type: functional, Cricetulus griseus;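 also: confirmatory dose-response counter-screen serving a CHOP assay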
[2] = reduction of Shn3 3'UTR-driven luciferase in osteoblasts – cell-based, Clone20 osteoblasts, firefly luciferase, cherry-picked, dose response (AID 624132); type: functional;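 also: firefly luciferase luminescence from reporter carrying the Shn3 3'UTR in osteoblasts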
Paired box protein Pax-8 = Paired box protein Pax-8 (Homo sapiens, UniProt Q06710); test: PAX8 transcriptional activity inhibition in RMG-I – RMG-I cells, luciferase, cherry-pick, dose response (AID 687027); type: functional, cell-based;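 also: luciferase reporter driven by Pax8 target thyroperoxidase promoter measured by SteadyGlo luminescence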
Insulin-degrading enzyme = biological target: T1, Insulin-degrading enzyme (Homo sapiens, UniProt P14735); test: recombinant IDE activation, cell-free – biochemical, fluorescence polarization, counter-screen for IDE activator project, dose response (AID 588681)
T1 sequence (P14735 whole entry): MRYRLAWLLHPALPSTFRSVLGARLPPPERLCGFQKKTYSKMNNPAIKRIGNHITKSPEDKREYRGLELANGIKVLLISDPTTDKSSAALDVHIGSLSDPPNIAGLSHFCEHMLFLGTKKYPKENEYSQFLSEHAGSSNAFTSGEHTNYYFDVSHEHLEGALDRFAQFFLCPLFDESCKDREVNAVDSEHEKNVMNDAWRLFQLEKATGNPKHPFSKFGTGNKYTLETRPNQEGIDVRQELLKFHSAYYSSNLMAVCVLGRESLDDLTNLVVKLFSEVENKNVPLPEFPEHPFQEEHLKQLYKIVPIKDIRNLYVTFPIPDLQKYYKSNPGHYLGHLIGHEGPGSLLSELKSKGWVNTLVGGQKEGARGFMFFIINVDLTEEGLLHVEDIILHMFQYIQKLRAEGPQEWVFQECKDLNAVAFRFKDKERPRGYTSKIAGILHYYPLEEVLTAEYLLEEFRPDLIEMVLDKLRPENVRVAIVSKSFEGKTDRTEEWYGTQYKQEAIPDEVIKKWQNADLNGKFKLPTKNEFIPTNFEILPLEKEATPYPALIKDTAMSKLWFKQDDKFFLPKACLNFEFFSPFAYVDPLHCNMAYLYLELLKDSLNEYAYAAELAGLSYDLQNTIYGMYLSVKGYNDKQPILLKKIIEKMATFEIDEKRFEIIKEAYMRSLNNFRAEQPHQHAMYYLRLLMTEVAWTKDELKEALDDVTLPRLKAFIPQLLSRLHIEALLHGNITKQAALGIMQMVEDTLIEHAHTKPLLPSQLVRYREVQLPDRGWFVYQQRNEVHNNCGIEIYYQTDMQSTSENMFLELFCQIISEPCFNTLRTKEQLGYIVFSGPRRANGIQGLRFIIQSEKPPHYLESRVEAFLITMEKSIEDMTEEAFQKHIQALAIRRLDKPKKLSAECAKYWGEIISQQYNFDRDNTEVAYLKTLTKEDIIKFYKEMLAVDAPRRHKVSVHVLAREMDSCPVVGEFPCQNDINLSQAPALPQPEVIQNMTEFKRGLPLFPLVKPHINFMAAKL

HEK293 = test: optical interference in Abeta FP readout, dose response, artefact control for IDE activator project, biochemical, fluorescence polarization (AID 588442); type: functional, cell-based; settings: Homo sapiens
[3] = non-specific 3'UTR reporter inhibition in Clone20-Shn3RL – cell-based, Renilla luciferase, cherry-picked, counter-screen for Shn3 inhibitor project, dose response (AID 624133); type: functional
Protein RecA = biological target: T2, Protein RecA (Mycobacterium tuberculosis, UniProt P9WHJ3); test: Fluorescence Cell-Free Homogeneous Dose Retest to Identify Inhibitors of RecA-Intein Splicing Activity. [Related pubchem assays (depositor defined):AID2097, AID2223, AID489010, AID492950]; type: functional
T2 sequence (P9WHJ3 whole entry): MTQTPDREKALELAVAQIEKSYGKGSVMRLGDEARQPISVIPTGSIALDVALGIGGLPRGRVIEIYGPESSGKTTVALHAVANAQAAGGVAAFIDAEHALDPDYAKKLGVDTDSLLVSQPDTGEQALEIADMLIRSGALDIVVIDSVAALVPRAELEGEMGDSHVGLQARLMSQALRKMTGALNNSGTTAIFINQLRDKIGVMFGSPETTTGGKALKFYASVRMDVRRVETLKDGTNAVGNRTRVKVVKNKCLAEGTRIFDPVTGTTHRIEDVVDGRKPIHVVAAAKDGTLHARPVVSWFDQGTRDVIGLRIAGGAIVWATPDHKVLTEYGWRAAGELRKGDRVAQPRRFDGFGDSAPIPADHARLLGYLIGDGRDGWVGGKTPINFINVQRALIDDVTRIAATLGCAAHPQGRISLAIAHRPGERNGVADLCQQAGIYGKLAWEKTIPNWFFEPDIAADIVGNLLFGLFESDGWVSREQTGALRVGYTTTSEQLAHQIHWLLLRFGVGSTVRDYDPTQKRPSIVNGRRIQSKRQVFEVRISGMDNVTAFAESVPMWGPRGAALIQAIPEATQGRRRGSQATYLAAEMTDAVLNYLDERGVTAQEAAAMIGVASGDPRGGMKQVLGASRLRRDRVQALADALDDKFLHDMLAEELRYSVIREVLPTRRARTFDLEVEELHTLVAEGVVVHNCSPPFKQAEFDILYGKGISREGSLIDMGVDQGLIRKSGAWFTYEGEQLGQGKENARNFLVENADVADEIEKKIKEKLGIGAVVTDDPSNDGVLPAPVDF

[4] = blockers of bursicon-stimulated LGR2 cAMP reporter – cell-based, HEK293, CRE-luciferase reporter, cherry pick, set 2, dose response (AID 743343); type: functional;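 also: transfected cells were stimulated with diluted bursicon conditioned medium after compound addition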
[5] = viability loss in HEK293 cells – cell-based, plate reader, cherry-picked samples, cytotoxicity control, dose response (AID 743446); type: functional
[6] = biological target: T3, Ubiquitin-conjugating enzyme E2 N (Homo sapiens, UniProt P61088); type: functional;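 also: Dose-response confirmation in a TR-FRET assay detecting UBC13-driven polyubiquitin chain formation, inhibition measured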
T3 sequence (P61088 whole entry): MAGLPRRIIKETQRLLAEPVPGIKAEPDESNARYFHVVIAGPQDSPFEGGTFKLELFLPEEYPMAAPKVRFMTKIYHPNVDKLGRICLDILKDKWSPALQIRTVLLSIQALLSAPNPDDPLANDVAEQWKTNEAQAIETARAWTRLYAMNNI

[7] = blockade of melanocortin 4 receptor signaling – cell-based, plate reader, cherry pick, counter-screen for LGR2 antagonist project, dose response (AID 743444); type: functional;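 also: transfected HEK 293 cells stimulated with alpha-MSH peptide; potency of inhibitors of the alpha-MSH evoked signal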

Chain of Paired box protein Pax-8 (Q06710 whole entry): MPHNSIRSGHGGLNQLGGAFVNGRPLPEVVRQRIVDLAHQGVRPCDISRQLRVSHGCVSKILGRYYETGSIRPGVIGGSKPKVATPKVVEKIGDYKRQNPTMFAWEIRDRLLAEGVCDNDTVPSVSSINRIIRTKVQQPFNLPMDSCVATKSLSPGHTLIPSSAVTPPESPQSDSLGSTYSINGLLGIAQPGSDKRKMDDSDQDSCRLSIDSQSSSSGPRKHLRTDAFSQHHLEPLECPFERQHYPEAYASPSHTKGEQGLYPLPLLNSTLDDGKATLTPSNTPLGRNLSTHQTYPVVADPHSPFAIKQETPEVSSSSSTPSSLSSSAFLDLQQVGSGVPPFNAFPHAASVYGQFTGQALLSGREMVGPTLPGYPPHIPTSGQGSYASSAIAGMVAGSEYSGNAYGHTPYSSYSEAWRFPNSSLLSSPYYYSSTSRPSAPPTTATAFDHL
Chain of X-box-binding protein 1 (P17861 whole entry): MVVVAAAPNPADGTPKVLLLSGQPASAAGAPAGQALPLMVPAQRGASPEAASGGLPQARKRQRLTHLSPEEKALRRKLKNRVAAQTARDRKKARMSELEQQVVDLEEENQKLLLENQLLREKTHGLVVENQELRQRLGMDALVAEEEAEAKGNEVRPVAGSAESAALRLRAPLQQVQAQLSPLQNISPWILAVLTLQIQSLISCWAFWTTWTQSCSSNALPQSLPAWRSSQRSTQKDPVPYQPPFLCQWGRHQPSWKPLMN

Cl.N=c1n(Cc2ccccc2)c2ccccc2n1CC(O)COc1ccc(Cl)cc1Cl (configuration not stated)
AC50 [1]: 6.26 µM (active)
Absolute IC50 (XBP1) (X-box-binding protein 1): 10 µM
AC50 [2]: 2.89 µM (active)
AC50 (Paired box protein Pax-8): 17.2 µM (active)
EC50 (Insulin-degrading enzyme): 40.1 µM (inactive)
EC50 (HEK293): > 54.7 µM (inactive)
AC50 [3]: 5.16 µM (active)
EC50 (Protein RecA): > 380 µM (inconclusive)
AC50 [4]: 23.1 µM (active)
AC50 [5]: 12.7 µM (active)
IC50 [6]: > 20 µM (inactive)
AC50 [7]: 26.6 µM (active)
